Reference: ChEMBL document CHEMBL3508140 (2016)

Legend:
[1] = Volume of distribution of epirubicin following intravenous epirubicin emulsion at 1 mg.Kg-1 dose in rabbit; assay type: ADME, organism-based, Oryctolagus cuniculus; conditions: both, New Zealand White, blood
[2] = Decrease in albumin due to persistent proteinuria following reference intravenous epirubicin at 1 mg.Kg-1 per week in rat; assay type: toxicity, organism-based, SD, Serum; conditions: in vivo
[3] = (§1) Urinary elimination of 4'-epiadriamycin following intravenous bolus 4'-epiadriamycin at 10 mg.Kg-1 dose in rat; assay type: ADME, organism-based; conditions: SD, urine, read-out: Compound recovery
[4] = as §1; assay type: ADME, organism-based; conditions: SD, urine, read-out: Compound recovery; remark: listed apart in the source
[5] = Half-life of terminal elimination phase of epirubicin following intravenous epirubicin at 20 mg.m-2 dose in cancer patients; assay type: ADME, organism-based; conditions: human, plasma
[6] = Terminal half-life of epirubicin following intravenous epirubicin at 1 mg.Kg-1 dose in rabbit; assay type: ADME, organism-based, Oryctolagus cuniculus; conditions: both, New Zealand White, plasma
[7] = Half-life of terminal elimination phase of epirubicin following intravenous epirubicin at 75 mg.m-2 dose in cancer patients; assay type: ADME, organism-based; conditions: human, plasma
[8] = Cumulative urinary excretion of epirubicin and its metabolites following epirubicin at 50 mg.m-2 dose in cancer patients; assay type: ADME, organism-based, Urine; conditions: human, in vivo; at 50 mg/m2
[9] = Half-life of epirubicin in plasma following single intravenous epirubicin at 10 mg.Kg-1 dose in female mouse bearing colon tumor; assay type: ADME, organism-based; conditions: BALB/c
[10] = Incidence of leukocyturia following reference intravenous epirubicin at 1 mg.Kg-1 per week in rat; assay type: toxicity, organism-based, SD; conditions: in vivo
[11] = Terminal half-life of epirubicin following intravenous epirubicin solution at 1 mg.Kg-1 dose in rabbit; assay type: ADME, organism-based, Oryctolagus cuniculus; conditions: both, New Zealand White, blood
[12] = Terminal elimination of metabolite of epirubicin following intravenous epirubicin at 40-60 mg.m-2 dose in cancer patients; assay type: ADME, organism-based, Plasma; conditions: human, in vivo
[13] = Initial phase half-life of epirubicin following intravenous epirubicin at 70 mg.m-2 dose in cancer patients; assay type: ADME, organism-based, Plasma; conditions: human, in vivo
[14] = Terminal half-life of epirubicinol following intravenous epirubicin at 1 mg.Kg-1 dose in rabbit; assay type: ADME, organism-based, Oryctolagus cuniculus, New Zealand White, Plasma; conditions: in vivo
[15] = Half-life of terminal elimination phase of epirubicin following intravenous epirubicin at 30-90 mg.m-2 dose in cancer patients; assay type: ADME, organism-based; conditions: human, plasma
[16] = Plasma clearance of 4'-epiadriamycin following intravenous 4'-epiadriamycin at 1.27 mg.Kg-1 dose in dog; assay type: ADME, organism-based, Canis lupus familiaris; conditions: Beagle, read-out: Clp
[17] = Plasma clearance of epirubicin following intravenous epirubicin at 40-60 mg.m-2 dose in cancer patients; assay type: ADME, organism-based; conditions: human, in vivo
[18] = Volume of distribution of epirubicin following intravenous epirubicin at 1 mg.Kg-1 dose in rabbit; assay type: ADME, organism-based, Oryctolagus cuniculus; conditions: both, New Zealand White, plasma
[19] = Urinary excretion of epirubicin following epirubicin at 50 mg.m-2 dose in cancer patients; assay type: ADME, organism-based; conditions: human, urine, at 50 mg/m2, read-out: Compound recovery
[20] = Volume of distribution as steady state of epirubicin following intravenous epirubicin at 50 mg.m-2 dose in cancer patients; assay type: ADME, organism-based, Plasma; conditions: human, in vivo
[21] = Plasma clearance of epirubicin following intravenous epirubicin at 75-90 mg.m-2 dose in cancer patients; assay type: ADME, organism-based; conditions: human, in vivo
[22] = Intermediate phase half-life of epirubicin following intravenous epirubicin at 40-60 mg.m-2 dose in cancer patients; assay type: ADME, organism-based, Plasma; conditions: human, in vivo
[23] = Intermediate phase half-life of epirubicin following intravenous epirubicin at 75 mg.m-2 dose in cancer patients; assay type: ADME, organism-based, Plasma; conditions: human, in vivo
[24] = Plasma clearance of epirubicin following intravenous epirubicin at 70 mg.m-2 dose in cancer patients; assay type: ADME, organism-based; conditions: human, in vivo
[25] = Urinary excretion of epirubicin following epirubicin at 60 mg.m-2 dose in cancer patients; assay type: ADME, organism-based; conditions: human, urine, at 60 mg/m2, read-out: Compound recovery
[26] = Renal clearance of epirubicin following epirubicin at 60 mg.m-2 dose in cancer patients; assay type: ADME, organism-based, Kidney; conditions: human, in vivo, iv, read-out: Renal clearance (converted)
[27] = Volume of distribution as steady state of epirubicin following intravenous epirubicin at 40-60 mg.m-2 dose in cancer patients; assay type: ADME, organism-based, Plasma; conditions: human, in vivo
[28] = Half-life of terminal elimination phase of epirubicin following intravenous epirubicin at 50 mg.m-2 dose in cancer patients; assay type: ADME, organism-based; conditions: human, plasma
[29] = Volume of distribution as steady state of epirubicin following intravenous epirubicin at 40-135 mg.m-2 dose in cancer patients; assay type: ADME, organism-based, Plasma; conditions: human, in vivo
[30] = Initial phase half-life of epirubicin following intravenous epirubicin at 90-150 mg.m-2 dose in cancer patients; assay type: ADME, organism-based, Plasma; conditions: human, in vivo
[31] = Cumulative urinary excretion of epirubicin and its metabolites following epirubicin at 60 mg.m-2 dose in cancer patients; assay type: ADME, organism-based, Urine; conditions: human, in vivo; at 60 mg/m2
[32] = Plasma clearance of epirubicin following intravenous epirubicin at 25-35 mg.m-2 dose in cancer patients; assay type: ADME, organism-based; conditions: human, in vivo
[33] = Volume of distribution of epirubicin following intrahepatic epirubicin emulsion at 1 mg.Kg-1 dose in rabbit; assay type: ADME, organism-based, Oryctolagus cuniculus; conditions: both, New Zealand White, blood
[34] = Volume of distribution of epirubicin following intrahepatic epirubicin solution at 1 mg.Kg-1 dose in rabbit; assay type: ADME, organism-based, Oryctolagus cuniculus; conditions: both, New Zealand White, blood
[35] = Half-life of terminal elimination phase of epirubicin following intravenous epirubicin at 75-90 mg.m-2 dose in cancer patients; assay type: ADME, organism-based; conditions: human, plasma
[36] = Plasma clearance of epirubicin following intravenous epirubicin at 30-90 mg.m-2 dose in cancer patients; assay type: ADME, organism-based; conditions: human, in vivo
[37] = Plasma clearance of epirubicin following intravenous epirubicin at 60-90 mg.m-2 dose in cancer patients; assay type: ADME, organism-based; conditions: human, in vivo
Albumin = Albumin (Homo sapiens, UniProt P02768); test: Binding of epirubicin to albumin; assay type: cell-free; conditions: read-out: Plasma protein binding (converted)
[38] = Intermediate phase half-life of epirubicin following intravenous epirubicin at 70 mg.m-2 dose in cancer patients; assay type: ADME, organism-based, Plasma; conditions: human, in vivo
[39] = Plasma clearance of epirubicin following intravenous epirubicin emulsion at 1 mg.Kg-1 dose in rabbit; assay type: ADME, organism-based, Oryctolagus cuniculus, Blood; conditions: both, New Zealand White
[40] = Mean plasma clearance of epirubicin following intravenous epirubicin at 60 mg.m-2 dose in cancer patients; assay type: ADME, organism-based; conditions: human, read-out: CLp (converted)
[41] = Plasma clearance of epirubicin following intravenous epirubicin at 50 mg.m-2 dose in cancer patients; assay type: ADME, organism-based; conditions: human, in vivo
[42] = Volume of distribution of epirubicin following intravenous epirubicin solution at 1 mg.Kg-1 dose in rabbit; assay type: ADME, organism-based, Oryctolagus cuniculus; conditions: both, New Zealand White, blood
[43] = Half-life of terminal elimination phase of epirubicin following intravenous epirubicin at 25-35 mg.m-2 dose in cancer patients; assay type: ADME, organism-based; conditions: human, plasma
[44] = Mean residence time (MRT) of epirubicin following intravenous epirubicin solution at 1 mg.Kg-1 dose in rabbit; assay type: ADME, organism-based, Oryctolagus cuniculus; conditions: both, New Zealand White, blood, read-out: Mean residence time (converted)
[45] = Mean AUC (8-48 h) of epirubicin following intravenous epirubicin at 1 mg.Kg-1 dose administered approximately 25 minute prior to epirubicin once weekly for four weeks in dog; assay type: ADME, organism-based, Canis lupus familiaris; conditions: Beagle, plasma
[46] = AUC of epirubicin following intravenous epirubicin emulsion at 1 mg.Kg-1 dose in rabbit; assay type: ADME, organism-based, Oryctolagus cuniculus; conditions: both, New Zealand White, blood
[47] = Percentage of epirubicin excreted unchanged in urine following epirubicin at 60 mg.m-2 dose in cancer patients; assay type: ADME, organism-based; conditions: human, at 60 mg/m2, read-out: Compound recovery
[48] = Urinary excretion of epirubicin following epirubicin at 60-150 mg.m-2 dose in cancer patients; assay type: ADME, organism-based; conditions: human, urine; read-out: Compound recovery
[49] = Initial phase half-life of epirubicin following intravenous epirubicin at 75 mg.m-2 dose in cancer patients; assay type: ADME, organism-based, Plasma; conditions: human, in vivo

Sequence of Albumin (P02768 whole entry): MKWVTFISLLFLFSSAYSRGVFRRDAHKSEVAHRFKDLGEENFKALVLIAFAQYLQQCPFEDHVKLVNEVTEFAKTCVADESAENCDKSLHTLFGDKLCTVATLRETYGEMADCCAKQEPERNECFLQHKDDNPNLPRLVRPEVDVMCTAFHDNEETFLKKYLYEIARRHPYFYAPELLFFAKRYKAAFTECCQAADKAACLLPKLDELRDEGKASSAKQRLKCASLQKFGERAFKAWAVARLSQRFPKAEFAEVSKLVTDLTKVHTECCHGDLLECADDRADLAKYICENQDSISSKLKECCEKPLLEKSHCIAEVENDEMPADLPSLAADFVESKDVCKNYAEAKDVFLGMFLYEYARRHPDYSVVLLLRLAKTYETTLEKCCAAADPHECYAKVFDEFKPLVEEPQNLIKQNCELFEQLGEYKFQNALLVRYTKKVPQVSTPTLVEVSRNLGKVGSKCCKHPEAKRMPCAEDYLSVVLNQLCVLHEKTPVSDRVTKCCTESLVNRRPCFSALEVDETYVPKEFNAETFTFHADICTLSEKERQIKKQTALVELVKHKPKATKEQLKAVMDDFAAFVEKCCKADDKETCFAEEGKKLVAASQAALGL

COc1cccc2c1C(=O)c1c(O)c3c(c(O)c1C2=O)C[C@@](O)(C(=O)CO)C[C@@H]3O[C@H]1C[C@H](N)[C@@H](O)[C@H](C)O1.Cl [EPIRUBICIN HYDROCHLORIDE]
Vd [1]: 18.8 L/kg | ALB_CHANGE [2]: OUTCOME = Decreased | dose excreted [3]: 3.9% | dose excreted [4]: 4.83% | half-life [5]: 13.9 h | half-life [6]: 22.9 h | half-life [7]: 44.8 h | Radiolabel recovery [8]: 20% | half-life [9]: 15.6 h | Incidence [10]: OUTCOME = Observed | half-life [11]: 1.06 h | t1/2 [12]: 31.5 h | t1/2 [13]: 3.15 min | t1/2 [14]: 13.97 h | half-life [15]: 39.4 h | clearance [16]: 589 mL/min | CLp [17]: 50.1 L.h-1.m-2 | Vd [18]: 368 L/kg | dose excreted at 48 h [19]: 6.2% | dose excreted at 96 h [19]: 9.6% | Vss [20]: 583 L.m-2 | CLp [21]: 94.9 L.h-1.m-2 | t1/2 [22]: 0.49 h | t1/2 [23]: 1.7 h | CLp [24]: 84.2 L.h-1.m-2 | dose excreted at 168 h [25]: 6.4% | CL renal [26]: 71.7 mL/min | Vss [27]: 592 L.m-2 | half-life [28]: 18.3 h | Vss [29]: 836 L.m-2 | t1/2 [30]: 0.167 h | Radiolabel recovery [31]: 11.3% | CLp [32]: 41.5 L.h-1.m-2 | Vd [33]: 137 L/kg | Vd [34]: 129 L/kg | half-life [35]: 38 h | CLp [36]: 48 L.h-1.m-2 | CLp [37]: 30.5 L.h-1.m-2 | fraction unbound (Albumin): 0.43 | t1/2 [38]: 1.25 h | clearance [39]: 1560 mL/min | clearance [40]: 1250 mL/min | CLp [41]: 37 L.h-1.m-2 | Vd [42]: 30.9 L/kg | half-life [43]: 29.3 h | MRT [44]: 1.26 h | AUC [45]: 233 ng·h/mL | AUC [46]: 134 ng·h/mL | dose excreted at 7 Day [47]: 6.4% | dose excreted at 168 h [48]: 3.2% | t1/2 [49]: 5.4 min
